Results taken from US20230021483A1, “[…] […] METHOD AND CLASSIFICATION OF PHARMACEUTICAL COMPONENTS BY USING TRANSCRIPTOMES” (National Institutes of Biomedical Innovation, Health and …, priority 2016, published 2023).

Tested on: preferentially upregulated genes in LV, SP, LN
Experiment: Z-score-based differential gene expression analysis (adjuvant group- or adjuvant-associated genes, 40 module mapping, TargetMine annotation)
Assay type: in vivo, C57BL/6 mice
Conditions: for Pml 1448757_at (Group G1, Modules 20) / Pml 1456103_at (Group G1, Modules 20) / Rnf213 1455500_at (Group G1, Modules 20) / Rsad2 1436058_at (Group G1, Modules 20) / Shisa5 1423986_a_at (Group G1, Modules 20) / Shisa5 1437503_a_at (Group G1, Modules 20) / Stat1 1450033_a_at (Group G1, Modules 20) / Stat1 1450034_at (Group G1, Modules 20) / Tdrd7 1426716_at (Group G1, Modules 20) / Tor1aip2 1418115_s_at (Group G1, Modules 20) / Tor1aip2 1418116_at (Group G1, Modules 20) / Tor1aip2 1435526_at (Group G1, Modules 20) / Trim12a 1437432_a_at (Group G1, Modules 20) / Uba7 1426970_a_at (Group G1, Modules 20) / Adar 1425405_a_at (Group G1, Modules 20) / Adar 1434268_at (Group G1, Modules 20) / Ddx58 1436562_at (Group G1, Modules 20) / Ddx58 1456890_at (Group G1, Modules 20) / Eif2ak2 1422005_at (Group G1, Modules 20) / G3bp2 1421323_a_at (Group G1, Modules 20) / Gm9706///Isg15 1431591_s_at (Group G1, Modules 20) / H2-T10///H2-T22///H2-T9 1449875_s_at (Group G1, Modules 20) / Ifih1 1426276_at (Group G1, Modules 20) / Ifit1 1450783_at (Group G1, Modules 20) / Ifit3 1449025_at (Group G1, Modules 20) / Irf7 1417244_a_at (Group G1, Modules 20) / Irgm1 1418825_at (Group G1, Modules 20) / Mndal 1426906_at (Group G1, Modules 20): ID, LV
Procedure, shortened: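 Gene groups for each organ were built from combined z-score cutoffs across adjuvants, ranging from z>1 to z>3. Scores came from fold changes standardized per gene over the whole organ data set, with the three replicate z-scores added per adjuvant; sums above 3 marked preferential expression.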

SMILES: Cc1ccc2c(=O)c3cccc(CC(=O)O)c3oc2c1C [DMXAA, 5,6-dimethylxanthenone-4-acetic acid]
- Pml 1448757_at (Group G1, Modules 20) (sample x1): 1.62
- Pml 1456103_at (Group G1, Modules 20) (sample x1): 2.18
- Rnf213 1455500_at (Group G1, Modules 20) (sample x1): 1.79
- Rsad2 1436058_at (Group G1, Modules 20) (sample x1): 1.56
- Shisa5 1423986_a_at (Group G1, Modules 20) (sample x1): 2.03
- Shisa5 1437503_a_at (Group G1, Modules 20) (sample x1): 2.12
- Stat1 1450033_a_at (Group G1, Modules 20) (sample x1): 1.5
- Stat1 1450034_at (Group G1, Modules 20) (sample x1): 1.53
- Tdrd7 1426716_at (Group G1, Modules 20) (sample x1): 1.6
- Tor1aip2 1418115_s_at (Group G1, Modules 20) (sample x1): 2.45
- Tor1aip2 1418116_at (Group G1, Modules 20) (sample x1): 2.19
- Tor1aip2 1435526_at (Group G1, Modules 20) (sample x1): 2.23
- Trim12a 1437432_a_at (Group G1, Modules 20) (sample x1): 1.82
- Uba7 1426970_a_at (Group G1, Modules 20) (sample x1): 1.81
- Adar 1425405_a_at (Group G1, Modules 20) (sample x2): 1.5
- Adar 1434268_at (Group G1, Modules 20) (sample x2): 1.52
- Ddx58 1436562_at (Group G1, Modules 20) (sample x2): 1.54
- Ddx58 1456890_at (Group G1, Modules 20) (sample x2): 1.93
- Eif2ak2 1422005_at (Group G1, Modules 20) (sample x2): 1.3
- G3bp2 1421323_a_at (Group G1, Modules 20) (sample x2): 1.22
- Gm9706///Isg15 1431591_s_at (Group G1, Modules 20) (sample x2): 1.39
- H2-T10///H2-T22///H2-T9 1449875_s_at (Group G1, Modules 20) (sample x2): 1.64
- Ifih1 1426276_at (Group G1, Modules 20) (sample x2): 1.09
- Ifit1 1450783_at (Group G1, Modules 20) (sample x2): 1.54
- Ifit3 1449025_at (Group G1, Modules 20) (sample x2): 1.3
- Irf7 1417244_a_at (Group G1, Modules 20) (sample x2): 1.18
- Irgm1 1418825_at (Group G1, Modules 20) (sample x2): 1.33
- Mndal 1426906_at (Group G1, Modules 20) (sample x2): 1.19
- Pml 1448757_at (Group G1, Modules 20) (sample x2): 1.35
- Pml 1456103_at (Group G1, Modules 20) (sample x2): 1.34
- Rnf213 1455500_at (Group G1, Modules 20) (sample x2): 1.2
- Rsad2 1436058_at (Group G1, Modules 20) (sample x2): 1.25
- Shisa5 1423986_a_at (Group G1, Modules 20) (sample x2): 1.81
- Shisa5 1437503_a_at (Group G1, Modules 20) (sample x2): 1.62
- Stat1 1450033_a_at (Group G1, Modules 20) (sample x2): 1.73
- Stat1 1450034_at (Group G1, Modules 20) (sample x2): 1.96
- Tdrd7 1426716_at (Group G1, Modules 20) (sample x2): 1.74
- Tor1aip2 1418115_s_at (Group G1, Modules 20) (sample x2): 1.52
- Tor1aip2 1418116_at (Group G1, Modules 20) (sample x2): 1.92
- Tor1aip2 1435526_at (Group G1, Modules 20) (sample x2): 1.48
- Trim12a 1437432_a_at (Group G1, Modules 20) (sample x2): 1.56
- Uba7 1426970_a_at (Group G1, Modules 20) (sample x2): 1.59
- Adar 1425405_a_at (Group G1, Modules 20) (sample x3): 0.93
- Adar 1434268_at (Group G1, Modules 20) (sample x3): 0.92
- Ddx58 1436562_at (Group G1, Modules 20) (sample x3): 1.31
- Ddx58 1456890_at (Group G1, Modules 20) (sample x3): 1.56
- Eif2ak2 1422005_at (Group G1, Modules 20) (sample x3): 0.68
- G3bp2 1421323_a_at (Group G1, Modules 20) (sample x3): 0.71
- Gm9706///Isg15 1431591_s_at (Group G1, Modules 20) (sample x3): 0.8
- H2-T10///H2-T22///H2-T9 1449875_s_at (Group G1, Modules 20) (sample x3): 0.51
- Ifih1 1426276_at (Group G1, Modules 20) (sample x3): 0.78
- Ifit1 1450783_at (Group G1, Modules 20) (sample x3): 1.04
- Ifit3 1449025_at (Group G1, Modules 20) (sample x3): 0.74
- Irf7 1417244_a_at (Group G1, Modules 20) (sample x3): 1
- Irgm1 1418825_at (Group G1, Modules 20) (sample x3): 0.79
- Mndal 1426906_at (Group G1, Modules 20) (sample x3): 0.73
- Pml 1448757_at (Group G1, Modules 20) (sample x3): 0.83
- Pml 1456103_at (Group G1, Modules 20) (sample x3): 0.34
- Rnf213 1455500_at (Group G1, Modules 20) (sample x3): 0.97
- Rsad2 1436058_at (Group G1, Modules 20) (sample x3): 0.44
- Shisa5 1423986_a_at (Group G1, Modules 20) (sample x3): 1.42
- Shisa5 1437503_a_at (Group G1, Modules 20) (sample x3): 1.72
- Stat1 1450033_a_at (Group G1, Modules 20) (sample x3): 1.15
- Stat1 1450034_at (Group G1, Modules 20) (sample x3): 1.16
- Tdrd7 1426716_at (Group G1, Modules 20) (sample x3): 1.09
- Tor1aip2 1418115_s_at (Group G1, Modules 20) (sample x3): 0.98
- Tor1aip2 1418116_at (Group G1, Modules 20) (sample x3): 1.37
- Tor1aip2 1435526_at (Group G1, Modules 20) (sample x3): 1.01
- Trim12a 1437432_a_at (Group G1, Modules 20) (sample x3): 1.11
- Uba7 1426970_a_at (Group G1, Modules 20) (sample x3): 1.21
- preferentially induced biological process relative to adjuvants targeting the same receptor (LN, z-scores and 40 module mapping): preferentially induced RNA processing and gene expression responses more than cdiGMP or cGAMP
- adjuvant group-associated biological features (z-score selected genes, TargetMine and IPA upstream cytokine analyses): strongly associated with type I and type II interferon responses
